The record followed here is publication PMC4472506 (Nature chemical biology, 2015).

SMILES strings stand for the structures.

Series [1] addresses T1, BTK (Homo sapiens, UniProt Q06187). The experiment in a line: Cellular durability.
Series [2] has as its target T2, ITK (Homo sapiens, UniProt Q08881).
T2 sequence (Q08881 1-620): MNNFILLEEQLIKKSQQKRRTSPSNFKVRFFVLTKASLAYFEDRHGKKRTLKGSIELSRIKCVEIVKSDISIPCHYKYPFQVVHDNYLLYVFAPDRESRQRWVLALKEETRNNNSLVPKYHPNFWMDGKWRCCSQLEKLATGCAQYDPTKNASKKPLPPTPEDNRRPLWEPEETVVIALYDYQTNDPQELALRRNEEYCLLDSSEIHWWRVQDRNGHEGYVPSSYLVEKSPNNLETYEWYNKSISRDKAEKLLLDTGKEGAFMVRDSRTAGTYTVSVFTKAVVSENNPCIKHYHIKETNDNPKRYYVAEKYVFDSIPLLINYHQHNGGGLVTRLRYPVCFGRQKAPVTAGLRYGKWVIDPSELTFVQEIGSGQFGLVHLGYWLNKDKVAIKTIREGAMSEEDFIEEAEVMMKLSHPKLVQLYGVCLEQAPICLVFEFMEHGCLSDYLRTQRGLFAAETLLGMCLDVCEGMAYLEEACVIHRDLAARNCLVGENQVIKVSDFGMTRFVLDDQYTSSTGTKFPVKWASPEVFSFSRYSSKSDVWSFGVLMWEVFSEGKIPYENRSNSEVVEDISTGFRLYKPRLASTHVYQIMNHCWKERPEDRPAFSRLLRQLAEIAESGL
In words: Enzymatic IC50 assay. It counts as biochemical.

A short description of series [3]: Oral bioavailability. The settings on record: in vivo.
Series [4] concerns the target T3, JAK3 (Homo sapiens, UniProt P52333).
T3 sequence (P52333 1-1124): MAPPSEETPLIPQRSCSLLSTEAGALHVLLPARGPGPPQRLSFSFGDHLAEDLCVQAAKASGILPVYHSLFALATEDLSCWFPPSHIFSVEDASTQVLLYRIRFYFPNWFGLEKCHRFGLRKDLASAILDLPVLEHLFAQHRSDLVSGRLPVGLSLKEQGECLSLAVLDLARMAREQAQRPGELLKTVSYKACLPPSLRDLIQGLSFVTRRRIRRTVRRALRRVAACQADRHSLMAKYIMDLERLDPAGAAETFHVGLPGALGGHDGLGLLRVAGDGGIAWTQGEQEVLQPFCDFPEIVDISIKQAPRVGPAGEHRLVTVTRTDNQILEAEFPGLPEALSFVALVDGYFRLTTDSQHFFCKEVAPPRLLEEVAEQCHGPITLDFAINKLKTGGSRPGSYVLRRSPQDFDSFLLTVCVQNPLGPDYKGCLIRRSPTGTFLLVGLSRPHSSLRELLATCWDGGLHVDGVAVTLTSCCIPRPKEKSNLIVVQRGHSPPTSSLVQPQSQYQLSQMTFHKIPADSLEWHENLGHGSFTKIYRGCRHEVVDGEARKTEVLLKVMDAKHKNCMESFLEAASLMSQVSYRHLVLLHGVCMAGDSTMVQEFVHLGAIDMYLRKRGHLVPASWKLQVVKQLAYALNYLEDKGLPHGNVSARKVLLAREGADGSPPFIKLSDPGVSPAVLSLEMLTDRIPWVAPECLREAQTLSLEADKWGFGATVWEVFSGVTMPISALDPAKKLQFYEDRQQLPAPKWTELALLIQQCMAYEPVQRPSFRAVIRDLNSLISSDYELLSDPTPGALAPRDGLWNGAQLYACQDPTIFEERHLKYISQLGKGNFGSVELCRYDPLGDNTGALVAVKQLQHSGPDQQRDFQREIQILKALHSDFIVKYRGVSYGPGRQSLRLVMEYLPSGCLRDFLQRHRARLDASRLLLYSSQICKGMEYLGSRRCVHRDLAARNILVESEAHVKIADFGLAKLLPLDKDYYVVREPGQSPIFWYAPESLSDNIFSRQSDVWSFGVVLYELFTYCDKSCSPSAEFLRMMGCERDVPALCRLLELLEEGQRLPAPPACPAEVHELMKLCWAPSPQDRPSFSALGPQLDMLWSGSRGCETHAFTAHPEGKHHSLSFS
In words: Enzymatic IC50 assay. The class given is biochemical.

Series [5] addresses T1, BTK. The experiment in a line: Dissociation of compound from BTK after guanidine-mediated unfolding. To be noted: relative to samples without BTK.
Series [6] concerns the target EGFR (Homo sapiens, UniProt P00533). The experiment in a line: Enzymatic IC50 assay. It counts as biochemical.
Series [7] can be described thus: Aqueous solubility. It counts as physicochemical.
For series [8], the target named is T1, BTK. The experiment in a line: Biochemical residence time using fluorescence competition. To be noted: for residence time: read-out: BTK residence time τ. It counts as binding.
Series [9] deals with T1, BTK. In words: BTK cell occupancy using Alphascreen. The class given is cell-based.

T1 sequence (Q06187 whole entry): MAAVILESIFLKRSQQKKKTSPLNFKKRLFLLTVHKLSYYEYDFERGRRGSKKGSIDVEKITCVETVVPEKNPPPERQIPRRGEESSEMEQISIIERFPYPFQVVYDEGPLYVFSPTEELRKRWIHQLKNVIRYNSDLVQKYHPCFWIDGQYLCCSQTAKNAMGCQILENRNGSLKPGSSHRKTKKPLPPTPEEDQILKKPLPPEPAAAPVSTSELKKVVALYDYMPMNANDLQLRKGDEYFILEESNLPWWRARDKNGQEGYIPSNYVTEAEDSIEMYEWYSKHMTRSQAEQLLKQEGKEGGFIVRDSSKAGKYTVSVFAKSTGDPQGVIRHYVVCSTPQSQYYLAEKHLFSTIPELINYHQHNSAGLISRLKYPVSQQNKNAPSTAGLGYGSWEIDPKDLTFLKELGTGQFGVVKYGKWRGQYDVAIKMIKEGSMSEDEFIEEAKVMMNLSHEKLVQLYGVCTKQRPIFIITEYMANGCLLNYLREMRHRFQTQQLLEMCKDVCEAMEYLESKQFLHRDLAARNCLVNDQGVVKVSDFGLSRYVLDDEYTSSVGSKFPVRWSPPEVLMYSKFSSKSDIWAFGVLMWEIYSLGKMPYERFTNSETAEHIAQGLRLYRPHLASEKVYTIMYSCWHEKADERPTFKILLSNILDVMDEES
EGFR, sequence (P00533 25-1210, species assumed): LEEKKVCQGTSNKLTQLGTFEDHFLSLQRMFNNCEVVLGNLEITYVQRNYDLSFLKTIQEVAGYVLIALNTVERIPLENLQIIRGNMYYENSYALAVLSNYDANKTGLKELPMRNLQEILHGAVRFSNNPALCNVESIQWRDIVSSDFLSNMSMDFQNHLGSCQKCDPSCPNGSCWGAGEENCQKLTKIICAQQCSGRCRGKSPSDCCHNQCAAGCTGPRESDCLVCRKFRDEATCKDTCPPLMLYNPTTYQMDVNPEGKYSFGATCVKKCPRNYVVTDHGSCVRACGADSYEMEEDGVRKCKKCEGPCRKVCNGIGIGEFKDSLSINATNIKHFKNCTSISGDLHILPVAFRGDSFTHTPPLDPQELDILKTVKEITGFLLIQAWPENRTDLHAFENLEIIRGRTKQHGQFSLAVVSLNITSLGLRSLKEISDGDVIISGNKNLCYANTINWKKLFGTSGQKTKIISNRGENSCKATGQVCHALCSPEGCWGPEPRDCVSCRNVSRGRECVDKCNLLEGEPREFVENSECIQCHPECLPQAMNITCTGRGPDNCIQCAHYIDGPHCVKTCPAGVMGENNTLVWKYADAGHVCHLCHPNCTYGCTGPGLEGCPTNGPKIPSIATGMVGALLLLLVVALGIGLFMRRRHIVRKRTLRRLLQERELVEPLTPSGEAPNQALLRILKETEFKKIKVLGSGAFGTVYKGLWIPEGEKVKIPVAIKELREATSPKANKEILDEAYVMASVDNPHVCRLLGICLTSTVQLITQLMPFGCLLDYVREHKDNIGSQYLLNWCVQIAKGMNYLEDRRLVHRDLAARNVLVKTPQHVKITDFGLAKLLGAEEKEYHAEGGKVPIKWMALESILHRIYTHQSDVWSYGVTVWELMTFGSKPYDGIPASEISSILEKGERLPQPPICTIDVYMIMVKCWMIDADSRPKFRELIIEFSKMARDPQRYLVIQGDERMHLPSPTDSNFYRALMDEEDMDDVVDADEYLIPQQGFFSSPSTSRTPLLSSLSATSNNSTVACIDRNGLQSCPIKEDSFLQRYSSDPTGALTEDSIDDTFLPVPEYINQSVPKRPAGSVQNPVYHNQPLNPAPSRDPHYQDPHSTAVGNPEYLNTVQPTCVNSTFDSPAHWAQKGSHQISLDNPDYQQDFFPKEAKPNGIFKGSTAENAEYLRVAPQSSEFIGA

`CC=C(C#N)C(=O)N1CCC[C@@H](n2nc(-c3ccc(Oc4ccccc4)cc3)c3c(N)ncnc32)C1` [Compound 1]: the “BTK occupancy 20 hrs post-washout” value in series [1] (Ramos B cells, 1 μM, 1 hr, PP-BODIPY) was “negligible”.

Take `CC(C)(C)C=C(C#N)C(=O)N1CCC[C@@H](n2nc(-c3ccc(Oc4ccccc4)cc3)c3c(N)ncnc32)C1` [Compound 3, (R)-2-(3-(4-Amino-3-(4-phenoxyphenyl)-1H-pyrazolo[3,4-d]pyrimidin-1-yl)piperidine-1-carbonyl)-4,4-dimethylpent-2-enenitrile]: in series [2], the “Selectivity for BTK over ITK” value is reported as 60 fold. Besides, the Oral bioavailability result in [3] was “poor oral bioavailability”. In series [4], the “Selectivity for BTK over JAK3” value is > 1,000 fold. Besides, the receptor occupancy at 1 µM in series [1] (Ramos, read-out: BTK occupancy 20 hrs post-washout) worked out at 55%. The “Recovery of compound after guanidine-mediated denaturation of BTK” value in series [5] is reported as 88 ± 10%. In addition, the “Selectivity for BTK over EGFR” value in series [6] is recorded as > 1,000 fold. The Solubility entry in series [7] is “low solubility”.

The IC50 is the concentration needed to halve the response being measured. For `CC(C)(C=C(C#N)C(=O)N1CCC[C@H]1Cn1nc(-c2ccc(Oc3ccccc3)cc2F)c2c(N)ncnc21)N1CCOCC1` [Compound 8], the residence time in [8] is 4980 ± 840 min. For the same molecule, the IC50 in [9] lay in the range of 5 to 27 nM.

Take `C=CC(=O)N1CCC[C@@H]1Cn1nc(-c2ccc(Oc3ccccc3)cc2F)c2c(N)ncnc21` [PP-ir]: the residence time in series [8] is greater than 12000 min. Besides, the “BTK residence time τ” value in [8] (room temperature) was “no evident dissociation”. For the same molecule, the IC50 in series [9] lay in the range of 5 to 27 nM.
